The record followed here is publication PMC3914891, “Pentacyclic Nitrofurans with In Vivo Efficacy and Activity against Nonreplicating Mycobacterium tuberculosis” (PLoS ONE, 2014).

≈ marks a conversion by molar mass, not a printed value. Some results are limits rather than exact numbers.

Assay [1] relates to 9a resistant clones of M. tuberculosis H37Rv. The assay is described as follows: microbe, parasite or virus in culture. Type of assay: cell-based, Mycobacterium tuberculosis.
For assay [2], the system named is H37Rv-5A1. Type of assay: cell-based, M. tuberculosis.
For assay [3], the system named is H37Rv-14A1. Type of assay: cell-based, M. tuberculosis.
The subject of assay [4] is H37Rv-T3. Type of assay: cell-based, M. tuberculosis.
The test system of assay [5] is M. tuberculosis H37Rv. The class given is cell-based, Mycobacterium tuberculosis.

Consider `O=[N+]([O-])c1ccc(C2=NOC(c3ccc(N4CCOCC4)cc3)C2)o1` (stereo not drawn) [Compound 2], for which, in assay [1], the “Cross resistance profile, Clone # 1” value is recorded as “R”; the “Cross resistance profile, Clone # 2” value is given as “R”; the “Cross resistance profile, Clone # 3” value is recorded as “R”; the “Cross resistance profile, Clone # 4” value was “R”. Also, in assay [1], the “Cross resistance profile, Clone # 5” value is “R”; the “Cross resistance profile, Clone # 6” value is on record as “R”; the “Cross resistance profile, Clone # 7” value is “R”; the “Cross resistance profile, Clone # 8” value was “R”. In assay [1], the “Cross resistance profile, Clone # 9” value is on record as “R” and the “Cross resistance profile, Parent” value was “S”.

Regarding `O=[N+]([O-])c1ccc(C2=NOC(c3ccc(N4CCC(Oc5ccc(OC(F)(F)F)cc5)CC4)cc3)C2)o1` (stereo not drawn) [Compound 9a, 3-(5-Nitrofuran-2-yl)-5-(4-(4-(4-(trifluoromethoxy)phenoxy)piperidin-1-yl)phenyl)-4,5-dihydroisoxazole], the MIC in assay [2] was found to be 0.05 µg/mL (≈ 0.0966 µM). In assay [3], this molecule gave an MIC of 0.1 µg/mL (≈ 0.193 µM). Besides, the MIC in assay [4] is 0.1 µg/mL (≈ 0.193 µM). The “frequency of spontaneous resistance” value in assay [5] is recorded as 3×10^−7. In assay [1], the “Cross resistance profile, Clone # 1” value was “R”; the “Cross resistance profile, Clone # 2” value was “R”; the “Cross resistance profile, Clone # 3” value is listed as “R”; the “Cross resistance profile, Clone # 4” value is “R”. In assay [1], the “Cross resistance profile, Clone # 5” value was “R”; the “Cross resistance profile, Clone # 6” value is on record as “R”; the “Cross resistance profile, Clone # 7” value was “R”; the “Cross resistance profile, Clone # 8” value is “R”. Further, in assay [1], the “Cross resistance profile, Clone # 9” value is on record as “R” and the “Cross resistance profile, Parent” value was “S”. Further, the MIC in assay [1] (Mycobacterium tuberculosis, H37RV) was greater than 3.13 µg/mL.

`CC[C@@H](CO)NCCN[C@@H](CC)CO` [Ethambutol]: the “sensitivity of 9a resistant clones to the drug” value (from here on “sensitivity”) in assay [1] is reported as “retained sensitivity”.

Regarding `NNC(=O)c1ccncc1` [Isoniazid], the “sensitivity” value in assay [1] is given as “retained sensitivity”.

Consider `CC(=O)NC[C@H]1CN(c2ccc(N3CCOCC3)c(F)c2)C(=O)O1` [Linezolid], for which the “sensitivity” value in assay [1] is reported as “retained sensitivity”.

In the case of `C[C@]1(COc2ccc(N3CCC(Oc4ccc(OC(F)(F)F)cc4)CC3)cc2)Cn2cc([N+](=O)[O-])nc2O1` [OPC-67683], in assay [1], the “Cross resistance profile, Clone # 1” value is “S”; the “Cross resistance profile, Clone # 2” value is given as “S”; the “Cross resistance profile, Clone # 3” value is listed as “S”; the “Cross resistance profile, Clone # 4” value was “S”. Besides, in assay [1], the “Cross resistance profile, Clone # 5” value was “R”; the “Cross resistance profile, Clone # 6” value is given as “S”; the “Cross resistance profile, Clone # 7” value is reported as “S”; the “Cross resistance profile, Clone # 8” value is listed as “S”. In addition, in assay [1], the “Cross resistance profile, Clone # 9” value is listed as “S” and the “Cross resistance profile, Parent” value was “S”.

On to `O=[N+]([O-])c1cn2c(n1)OC[C@@H](OCc1ccc(OC(F)(F)F)cc1)C2` [PA-824], for which the MIC in assay [2] was determined as 50 µg/mL (≈ 139 µM). In assay [3], the MIC was 50 µg/mL (≈ 139 µM). This molecule also showed an MIC in assay [4] of 100 µg/mL (≈ 278 µM). Also, in assay [1], the “Cross resistance profile, Clone # 1” value is “S”; the “Cross resistance profile, Clone # 2” value is given as “S”; the “Cross resistance profile, Clone # 3” value is given as “S”; the “Cross resistance profile, Clone # 4” value was “S”. Besides, in assay [1], the “Cross resistance profile, Clone # 5” value is “R”; the “Cross resistance profile, Clone # 6” value is listed as “S”; the “Cross resistance profile, Clone # 7” value is “S”; the “Cross resistance profile, Clone # 8” value is “S”. In assay [1], the “Cross resistance profile, Clone # 9” value is recorded as “S” and the “Cross resistance profile, Parent” value is given as “S”.

Take `CO[C@H]1/C=C/O[C@@]2(C)Oc3c(C)c(O)c4c(O)c(c(/C=N/N5CCN(C)CC5)c(O)c4c3C2=O)NC(=O)/C(C)=C\C=C\[C@H](C)[C@H](O)[C@@H](C)[C@@H](O)[C@@H](C)[C@H](OC(C)=O)[C@@H]1C` [Rifampin]: the “sensitivity” value in assay [1] is “retained sensitivity”.

Take `[H]/N=C(/N)N[C@H]1[C@H](O)[C@@H](O)[C@H](O[C@@H]2O[C@@H](C)[C@](O)(C=O)[C@H]2O[C@@H]2O[C@@H](CO)[C@H](O)[C@@H](O)[C@@H]2NC)[C@@H](N/C(N)=N\[H])[C@@H]1O` [Streptomycin]: the “sensitivity” value in assay [1] is given as “retained sensitivity”.

`CC1COc2c(N3CCN(C)CC3)c(F)cc3c(=O)c(C(=O)O)cn1c23` (stereo not drawn) [ofloxacin]: in assay [1], the “sensitivity” value is listed as “retained sensitivity”.
